From ChEMBL document CHEMBL3232749, “Exploring the water-binding pocket of the type II dehydroquinase enzyme in the structure-based design of inhibitors” (J Med Chem, 2014) come the findings set out here.

Assay [1] addresses T1, 3-dehydroquinate dehydratase (Helicobacter pylori (strain ATCC 700392 / 26695) (Campylobacterpylori), UniProt Q48255).
T1 sequence (Q48255 whole entry): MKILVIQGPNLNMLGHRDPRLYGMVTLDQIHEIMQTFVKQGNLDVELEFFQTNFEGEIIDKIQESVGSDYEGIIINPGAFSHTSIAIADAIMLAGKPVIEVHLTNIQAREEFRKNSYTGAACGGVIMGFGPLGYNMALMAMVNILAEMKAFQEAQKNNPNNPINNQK
As to the kind of experiment: Reversible competitive inhibition of Helicobacter pylori DHQ2 assessed as conversion of 3-dehydroquinic acid to 3-dehydroshikimic acid by Dixon plot analysis.

Assay [2] in a line: Reversible competitive inhibition of Mycobacterium tuberculosis DHQ2 assessed as conversion of 3-dehydroquinic acid to 3-dehydroshikimic acid by Dixon plot analysis.

A word on the Ki: it is the equilibrium dissociation constant of an inhibitor or competing ligand from its target.

Turning to `O=C(O)[C@]1(O)C=C([C@@H](O)Cc2ccccc2)[C@@H](O)[C@H](O)C1`, the Ki in assay [1] was 37 µM; in assay [2], 34 µM.
The like results for `O=C(O)[C@]1(O)C=C(CO)[C@@H](O)[C@H](O)C1` were, in that order, 282 µM and 11.2 µM.
Regarding `O=C(O)[C@]1(O)C=C(CCO)[C@@H](O)[C@H](O)C1`, the Ki in assay [1] was found to be 188 µM; in assay [2] it was 15 µM.
As to `O=C(O)[C@]1(O)C=C([C@H](O)Cc2ccccc2)[C@@H](O)[C@H](O)C1`, the values for the Ki in assay [1] and in assay [2] were 33 µM and 27 µM, respectively.
On the same counts, the results for `O=C(O)[C@]1(O)C=C([C@@H](Cl)Cc2ccccc2)[C@@H](O)[C@H](O)C1` are 40.5 µM and 14.5 µM.
The like results for `O=C(O)[C@]1(O)C=C([C@H](Cl)Cc2ccccc2)[C@@H](O)[C@H](O)C1` were, in that order, 10.5 µM and 0.48 µM.
